Read-outs that look alike come from different tables or passages of the source.
Key:
eye = settings: cited from earlier work
[1] = tested on: human corneal epithelial cells; settings: reported in Burgalassi et al. Tox. Lett. 2001; cited from earlier work
[2] = design: species or system Lewis female rats; settings: rat, in vivo
Protocol: Animal studies were carried out on Lewis female rats (6-8 weeks of age) from Harlan Laboratories Inc. (Rehovot, Israel). In some cases as noted below, the rats were anesthetized with ketamin/xylazine […].
ELISA tests were performed using commercially available ELISA kits from Assay Designs (Ann Arbor, Mich., USA) in accordance with the manufacturer's instructions in the usual way in conjunction with a BioTek EL-310 plate reader (Cambridge Scientific Products, Cambridge, Mass., USA).
Pharmaceutical compositions were administered by instillation in the eyes of rats or administered as a mist using the nebulization device described above at a rate of 10 μl minute^−1. Subsequent to administration and a waiting time, the rats were sacrificed.
Subsequent to sacrifice, serum, cerebrospinal fluid (CSF, 50-100 μl), retina, optic nerve, sclera, and aqueous humor (AH) of an animal were harvested. The retina, optic nerve, and sclera of each animal was individually homogenized in 120 ul assay buffer on ice and centrifuged. The serum, CSF, AH and the homogenized retina, optic nerve and sclera were assayed for the presence of leptin using ELISA.
Data below is expressed as pg ml^−1 for serum, CSF and AH and as pg mg^−1 for tissue (determined using the Lowry method). […]

beta-adrenoceptor = settings: cited from earlier work
[3] = reported in Saettone et al. Int. J. Pharma. 1996

Compound: C[C@@H]1CC[C@@]2(OC1)O[C@H]1[C@@H](O)[C@H]3[C@@H]4CC[C@H]5C[C@@H](O[C@@H]6O[C@H](CO)[C@H](O[C@@H]7O[C@H](CO)[C@@H](O)[C@H](O[C@@H]8OC[C@@H](O)[C@H](O)[C@H]8O)[C@H]7O[C@@H]7O[C@H](CO)[C@H](O)[C@H](O[C@@H]8O[C@H](CO)[C@@H](O)[C@H](O)[C@H]8O)[C@H]7O)[C@H](O)[C@H]6O)[C@H](O)C[C@]5(C)[C@H]4CC[C@]3(C)[C@H]1[C@@H]2C [digitonin]
- irritation to the eye (eye; [3]): strongly irritating to the eye

Compound: BL-9
- irritation to the eye (eye; [3]): strongly irritating to the eye

Compound: benzalkonium chloride
- toxicity to human corneal epithelial cells relative to Brij-78 and EDTA [1]: less toxic to human corneal epithelial cells than Brij-78 but more toxic than EDTA
- irritation to the eye (eye; [3]): strongly irritating to the eye

Compound: leptin
- leptin concentration in optic nerve and sclera relative to retina [2]: markedly higher than in the retina

Compound: Brij-99
- irritation to the eye (eye; reported in Morgan, J. Ocular Pharm. Ther. 1995): strongly irritation to the eye

Compound: CC(C)(C)NCC(O)COc1cccc2c1CCCC2=O.Cl (single isomer, unassigned; (-)) [Levobunolol, (−)-5-[3-(tert-Butylamino)-2-hydroxypropoxy]-3,4-dihydro-1(2H)-naphthalenone hydrochloride]
- potency in beta-blocking activity relative to its dextro isomer (beta-adrenoceptor): greater than 60 times

Compound: CCCCCCCCCCCCCCCC[n+]1ccccc1 [cetylpyridinium chloride]
- toxicity to human corneal epithelial cells relative to Brij-78 and EDTA [1]: less toxic to human corneal epithelial cells than Brij-78 but more toxic than EDTA

Compound: CC(=O)O[C@H]1C[C@@]2(C)[C@@H](C[C@@H](O)[C@H]3[C@@]4(C)CC[C@@H](O)[C@@H](C)[C@@H]4CC[C@@]32C)/C1=C(\CCC=C(C)C)C(=O)O [sodium fusidate]
- irritation to the eye (eye; reported in Furrer et al. AAPS PharmSci 2002): strongly irritating to the eye

Source: US20140171490A1, “Method and Device for Ophthalmic Administration of Active Pharmaceutical Ingredients” (PHARMALIGHT INC., priority 2005, published 2014)
